According to patent US20110160260A1, “Method of Treating a Neurodegenerative Disorder” (Chung Shan Medical University, priority 2009, published 2011):

Legend:
Assay type in all cases: in vivo, Wistar rats
[1] = tested on: MPTP-lesioned rats (Parkinson's disease animal model); experiment: Episodic-like memory test in MPTP-lesioned rats
Description: (§1) Thirty-nine male Wistar rats (306.2±0.9 g; BioLASCO Taiwan Co., Ltd.) were used as experimental animals in the present invention. All experimental procedures were performed according to the NIH Guide for the Care and Use of Laboratory Animals and were approved by the Animal Care Committee of the Chung Shan Medical University (IACUC approval No.: 434). All animals underwent stereotaxic surgery and MPTP were injected into the substantia nigra pars compacta (SNc) in the animals to establish Parkinson's disease animal model. One day after the surgery, the rats received daily dose of intraperitoneal (i.p.) injections of D-cycloserine (DCS) (0, 5, or 10 mg/kg/day) or saline at 18:00 for 13 days. The animals were divided respectively into groups of experimental group 0 (E0), receiving MPTP+saline, experimental group 1 (E1), receiving MPTP+DCS 5 mg/kg/day, experimental group 2 (E2), receiving MPTP+DCS 10 mg/kg/day and Sham-operated group/control group (CR), receiving saline (1 ml/kg/day, i.p.) (also called control group or Sham+saline group). The descriptions of “control group, experimental group 0, experimental group 1 and experimental group 2” were used below.
(§2) For the brain surgery, all animals were intraperitoneal injected with Zoletil (2 mg/kg; Virbac, Carros, Franc) and received stereotaxic surgery after anesthetization. MPTP-HCl (1 μmol in 2 μl of saline; Sigma, Mo., USA) (Da Cunha et al., Behav Brain Res, 2001, 124:9-18; Gevaerd et al., Brain Res Bull, 2001, 55: 101-6) or saline (2 μl) were microinjected into the substantia nigra pars compacta (SNc).
The episodic-like memory test was performed in an open field (60×60×40 cm, without roof allowing rats to aware external distal cues), 13 days after the MPTP lesion. The floor of the open field was divided into 9 areas of equal size. A video camera was mounted 160 cm above the center of the open field to record and analysis the behavior of rats. Two different sets of objects made of metal or plastic were used in the experiment. The objects weighed about 950 g and therefore, they were unmovable by the rats. The two objects differed in the diameter of base, height, color, shape, and surface texture (the metal object: column in shape, 6.5 cm in diameter, 12 cm high, silver-colored, smooth surface; the plastic object: cuboid in shape, a 7.5×5 cm cross section, 15 cm high, pellucid-colored, rough surface). One day before the test, rats were placed individually into the open field for twice and allowed to explore it (once for 5 min), with a 4 h interval, for adapting to the testing environment.
The procedure of episodic-like memory test was consistent with previous reported research (Li and Chao., Neurobiol Learn Mem 2008; 89:192-8). The method comprised two sample trials and one testing trial. In the first sample trial, the rats were placed in the open field with four identical objects (FIG. 1A, upper left), and allowed to explore them for 5 min. After an interval of 60 min, the rats were put into the same open field again and received the second sample trial for 5 min, wherein the objects were replaced with another objects and the spatial configuration was changed (FIG. 1A, lower left). After an additional interval of 60 min, the rats received a testing trial, wherein two identical objects from sample trial 1 (the “old” objects; “O”) and two identical objects from sample trial 2 (the “recent” objects; “R”) were presented. In the testing trial, animals encountered a mixed set consisting of two “O” and two “R” objects. One object from each of the two sets of objects was placed in the “same” location as in the sample trials (Os and Rs). The other two objects were “displaced” to new locations (Od and Rd) (FIG. 1A, lower right). Time spent on exploring the objects was recorded.

[2] = tested on: DAergic neurons in striatum and SNc of MPTP-lesioned rats; experiment: Tyrosine hydroxylase (TH) immunostaining of striatum and SNc, image analysis
Description: as §1, §2
One day after the test of episodic-like memory, rats were sacrificed under deep anesthesia by CO2. For histological assessment, 5-6 randomly selected rats per group were perfused cardiacly with 4% paraformaldehyde in phosphate-buffered saline (PBS), and the brains were removed rapidly and post-fixed in 20% sucrose solution with 4% paraformaldehyde at 4° C. […]
A microscope (ZEISS AXioskop2, Germany) disposed with a CCD (Optronics, USA) and the Image Pro Plus Software 6.0 (Media Cybernetics, CA, USA) was used for observation. […] The gray level of a given area of interest was measured, and the background staining measured in non-immunoreactive corpus callosum was subtracted. […] The somas of TH immunoreactive neurons located in this area were counted. The density of activated microglia was measured, according to the methods described in the literature (Sugama S, et al., Brain Res, 2003, 964: 288-94). […] Then, the numbers of activated microglial cells in the SNc, striatum, and hippocampus were counted in the areas of interest (measuring 18,769, 36,477, and 18,769 μm^2, respectively). […]

[3] = tested on: activated microglia in SNc, striatum and hippocampus of MPTP-lesioned rats; experiment: OX-6 (MHC class II) immunostaining, density of activated microglia
Description: as §1, §2
One day after the test of episodic-like memory, rats were sacrificed under deep anesthesia by CO2. For histological assessment, 5-6 randomly selected rats per group were perfused cardiacly with 4% paraformaldehyde in phosphate-buffered saline (PBS), and the brains were removed rapidly and post-fixed in 20% sucrose solution with 4% paraformaldehyde at 4° C. The frozen coronal brain sections were cut into 30 μm and further immunostained with mouse monoclonal antibodies against rat tyrosine hydroxylase (TH) (1:2000; Zymade, USA) or rat MHC class II (OX-6; 1:200; BD Biosciences Pharmingen, CA, USA) at 4° C. overnight, identical to the method used in our previous report (Wang, Wu, Liou, et. al, Behav Neurosci, 2009). In sections containing hippocampus, neurons in the hippocampus was identified by Nissl staining method.
A microscope (ZEISS AXioskop2, Germany) disposed with a CCD (Optronics, USA) and the Image Pro Plus Software 6.0 (Media Cybernetics, CA, USA) was used for observation. The three square areas (measuring 36,477, 18,769, and 2,354 μm^2) were applied respectively to determine the relative optical density of TH immunoreactivity in the striatum and the neuronal density in the SNc and hippocampal CA1 area. The images of TH staining were converted to the gray scale for measuring the density of DAergic projections. The gray level of a given area of interest was measured, and the background staining measured in non-immunoreactive corpus callosum was subtracted. […] The somas of TH immunoreactive neurons located in this area were counted. The density of activated microglia was measured, according to the methods described in the literature (Sugama S, et al., Brain Res, 2003, 964: 288-94). […] Then, the numbers of activated microglial cells in the SNc, striatum, and hippocampus were counted in the areas of interest (measuring 18,769, 36,477, and 18,769 μm^2, respectively). […]

[4] = tested on: pyramidal neurons in hippocampal CA1 area of MPTP-lesioned rats; experiment: Nissl staining of hippocampal CA1 pyramidal cell layer, neuronal density; settings: DCS 10 mg/kg/day
Description: Thirty-nine male Wistar rats (306.2±0.9 g; BioLASCO Taiwan Co., Ltd.) were used as experimental animals in the present invention. All experimental procedures were performed according to the NIH Guide for the Care and Use of Laboratory Animals and were approved by the Animal Care Committee of the Chung Shan Medical University (IACUC approval No.: 434). All animals underwent stereotaxic surgery and MPTP were injected into the substantia nigra pars compacta (SNc) in the animals to establish Parkinson's disease animal model. One day after the surgery, the rats received daily dose of intraperitoneal (i.p.) injections of D-cycloserine (DCS) (0, 5, or 10 mg/kg/day) or saline at 18:00 for 13 days. […]
A microscope (ZEISS AXioskop2, Germany) disposed with a CCD (Optronics, USA) and the Image Pro Plus Software 6.0 (Media Cybernetics, CA, USA) was used for observation. […] The gray level of a given area of interest was measured, and the background staining measured in non-immunoreactive corpus callosum was subtracted. […] The somas of TH immunoreactive neurons located in this area were counted. The density of activated microglia was measured, according to the methods described in the literature (Sugama S, et al., Brain Res, 2003, 964: 288-94). […]

Structure (SMILES): N[C@@H]1CONC1=O [DCS, D-4-amino-3-isoxazolidone]
- function of episodic-like memory after MPTP lesion ([1]; DCS 10 mg/kg/day): recovered
- time exploring old object, same location (Os) vs different location (Od), paired t-test ([1]; MPTP+DCS 5 mg/kg/day (E1)): had the trend of significance
- time exploring recent object, displaced (Rd) vs same place (Rs), paired t-test ([1]; MPTP+DCS 5 mg/kg/day (E1)): no differences between exploring Rs and exploring Rd
- total exploration time in the test trial ([1]; MPTP+DCS 5 mg/kg/day i.p. for 13 days (E1)): 54.4 ± 5.9 s
- time exploring recent object, displaced (Rd) vs same place (Rs), paired t-test ([1]; MPTP+DCS 10 mg/kg/day (E2), P<0.001): spent a longer time exploring the displaced object (Rd)
- time exploring old object, same location (Os) vs different location (Od), paired t-test ([1]; MPTP+DCS 10 mg/kg/day (E2), P<0.05): spent a longer time exploring the old object placed in the same location (Os)
- total exploration time in the test trial ([1]; MPTP+DCS 10 mg/kg/day i.p. for 13 days (E2)): 25.4 ± 4.3 s
- MPTP-induced reduction in relative optical density of TH immunoreactivity in the striatum ([2]; DCS 5 mg/kg/day): blocked
- MPTP-induced reduction in the density of DAergic neurons in the SNc ([2]; DCS 5 mg/kg/day): blocked
- MPTP-induced reduction in relative optical density of TH immunoreactivity in the striatum ([2]; DCS 10 mg/kg/day): blocked
- MPTP-induced reduction in the density of DAergic neurons in the SNc ([2]; DCS 10 mg/kg/day): blocked
- MPTP-induced microglial activation in the SNc ([3]; DCS 5 mg/kg/day): suppressed
- MPTP-induced microglial activation in the hippocampus ([3]; DCS 5 mg/kg/day): suppressed
- MPTP-induced microglial activation in the SNc ([3]; DCS 10 mg/kg/day): suppressed
- MPTP-induced microglial activation in the hippocampus ([3]; DCS 10 mg/kg/day): suppressed
- microglial activation in the striatum ([3]; DCS 5 and 10 mg/kg/day groups vs other groups): no significant difference between the groups
- MPTP-induced decrease of neuronal density in the pyramidal cell layer of hippocampal CA1 area [4]: blocked
